The values that follow come from patent publication US10172883B2, “Methods and compositions for treating and/or inhibiting toxins using copper-containing compounds” (ALATALAB SOLUTIONS, LLC, priority 2014, dated 2019).

The subject of experiment [1] is cnidarian sting blistering inflammation. As to the kind of experiment: Live jelly sting test, blistering inflammation. The experiment is classed as in vivo.
Another experiment concerns hemolytic toxins. Conditions: 10 mM d-lactulose; cited from earlier work.
Experiment [2] has as its system fire ant venom-induced hemolysis of RBCs. As to the kind of experiment: Live time microscopic imaging of fire ant venom-induced hemolysis of RBCs. The conditions noted are these: 10 ng/μL fire ant venom, 1 μM copper gluconate, single dose. The experiment is classed as cell-based, human.
Experiment [3] relates to box jellyfish venom (Alatina alata) induced hemolysis of human RBCs. As to the kind of experiment: Inhibition of box jellyfish venom induced hemolysis of human RBCs. The experiment is classed as cell-based. The conditions noted are these: for concentration at which active for box jellyfish venom inhibition: 5 units/mL/% RBC box jellyfish venom, 1 hour, 37° C., active at this concentration or greater.

The subject of experiment [4] is live Alatina alata tentacles on human RBC agar. The experiment is described as follows: RBC agar slide hemolysis by live Alatina alata tentacles. The experiment is classed as cell-based. Conditions: 10 μM in agar slide, 2% fresh human RBC, 37° C., one hour. Here is the method: 2-20 mm sections of fresh live Alatina alata tentacles were placed on top of freshly prepared RBC agar slide (3% NuSieve GTG low melting agarose, 150 mM NaCl with 2% fresh human RBC). Slides were incubated at 37° C. for one hour. Zones of hemolysis are observed in control slide (FIG. 5, left) but not in slides prepared with 10 μM Copper Gluconate (3% NuSieve GTG low melting agarose, 150 mM NaCl, 10 μM Copper Gluconate with 2% fresh human RBC) (FIG. 5, right). A zone of hemolysis indicates lysis of the red blood cells.

The test system of experiment [5] is fire ant venom (Solenopsis invicta) induced hemolysis of human red blood cells (RBCs). It is filed as cell-based.

As to `O=C(Nc1ccc(Cl)cc1)Nc1ccc(Cl)c(Cl)c1` [TCC, triclocarban], the “resolution of blistering inflammation” value in experiment [1] (1% TCC in vanacreme, topical, untreated test lasted up to 72 hr) was “fully resolving the blistering inflammation”. Moreover, in experiment [1] (after application of a live jelly in a sting test), the “time to resolve blistering inflammation” value is no more than 90 min.
For the molecule `OC[C@H]1O[C@@H](O[C@@H]2[C@@H](CO)O[C@](O)(CO)[C@H]2O)[C@H](O)[C@@H](O)[C@H]1O` [d-lactulose], the hemolysis entry in the experiment with hemolytic toxins is “dramatic absence of hemolysis”.
The molecule copper gluconate yielded a slowing of hemolysis in experiment [2] of 6 fold. In addition, in experiment [3], the “potency relative to zinc gluconate alone in inhibiting box jellyfish venom” value is on record as “approximately 10 times” and the “concentration at which active for box jellyfish venom inhibition” value was “approximately 30 μM”. Moreover, the “zones of hemolysis observed” value in experiment [4] is “not”. In experiment [5], the “concentration at which active for fire ant venom inhibition” value was “approximately 3 μM” and the “efficacy relative to zinc gluconate in the inhibition of ant venom” value is on record as “approximately 10,000 times”.
As for zinc gluconate, the “concentration at which active for box jellyfish venom inhibition” value in experiment [3] is reported as “approximately 300 μM”. In experiment [5], the “concentration at which active for fire ant venom inhibition” value is reported as “approximately 25 mM” and the “effect on hemolysis at early time points” value is recorded as “potently stimulated hemolysis”.
